Results published in US5411965A, “Use of delta opioid receptor antagonists to treat cocaine abuse” (Arizona Board of Regents, priority 1993, dated 1995).
Entries after “also recorded” stand apart in the source; their conditions may differ. Where two headings read alike, the source gives them in different places.

How the values were obtained:
[1] = drug alone; literature; cited from earlier work
[2] = format: in vivo, rats; settings: for pressing for brain stimulation, cocaine alone: cocaine (5.0 mg/kg in Example 5); for pressing for brain stimulation, NTI plus MDMA: in words
Source text: When rats are fixed with chronically indwelling bipolar electrodes for electrical stimulation of the medial forebrain bundle, they will press levers for brief durations of stimulation. The higher the intensity of stimulation, the greater the pressing. […] These relationships plus extant theory provide the rationale for using pressing for brain stimulation as a means of assessing the reinforcing effects of drugs and assessing which drugs might affect another drug's reinforcing effects.
The particulars of the procedures used herein are briefly summarized. Further information is in Reid (cited above) and Reid et al. (Life Sciences, 52, PL67-71 (1993)). Rats were fixed with chronically indwelling bipolar electrodes. Using standard stereotaxic methods, which includes full anesthesia, the tips of the electrode were aimed to stimulate the medial forebrain bundle as it traverses the lateral hypothalamus. With the skull held in a stereotaxic instrument so that a plane between bregma and lamba was perpendicular to the shaft of the electrode, the following stereotaxic coordinates were used: 3.5 mm posterior to brema, 1.6 mm lateral to the midline, and 8.6 mm below the surface of the skull.
The apparatus of these tests was a Skinner box (24×30 ×38 cm) equipped with a lever (2.5×2 cm). Each box was fixed with electrical leads and a slip-ring apparatus that allowed the rat to be connected to the electrical stimulator for intracranial stimulation, but allowed the rat to move freely in the box.
Upon full recovery from surgery, rats were trained to press a lever in the Skinner box for electrial stimulation of the brain. The electrical stimulation was 60 Hz sine waves of 0.3 sec. The maximum intensity used was of 50 microAmps. Each lever press delivered one 0.3-sec of brain stimulation.
Just after rats learned to press the lever, the intensity of the brain stimulation was varied. Three intensities were chosen. The lowest intensity was one that was barely sufficient to sustain lever pressing. The highest intensity sustained high rates of pressing, but not the highest rates that a rat can achieve. The medium intensity was about midway between the lowest and the highest. Once a set of intensities were established for each rat, those intensities remained fixed throughout the balance of testing. […] Each rat was under a daily regimen. They were allowed to press for each of three intensities of brain stimulation for 10 minutes. […] They were allowed to press the lever under this daily regimen under level-pressing rates became stable. Then, drugs (or placebos) were administered.
The methods of Example 5 were nearly the same as those of Example 4. Rats were fixed, using standard procedures, with chronically indwelling electrodes for stimulation of the medial forebrain bundle. Subsequent to recovery from surgery, they were trained to press for brain stimulation. After each learned to press, they were put on a daily regimen. That daily regimen involved pressing for 5 min at a high intensity of brain stimulation, followed by 5-minute sessions with medium, low, low, medium and then high intensity. Intensities were set for each rat so that pressing rate for the low intensity was rather slow (the low intensity being near lower threshold for maintaining pressing), pressing for the high intensity was at a high rate, and pressing for the medium intensity was between the rate for low and high intensity. Pressing at each intensity was averaged for an index of rat's responsiveness at that intensity.

[3] = Conditioned place preference (CPP) test; format: in vivo, male Lewis rats; settings: for conditioned place preference, cocaine alone: cocaine 15 mg/kg s.c. plus placebo
Source text: Testing associated with conditioning place preference (CPP) procedures involves some rather straightforward assumptions and observations.
To test NTI's ability to block cocaine's ability to establish a CPP, male, Lewis rats were subjected to standard procedures associated with testing for place preferences. The rats were first habituated to being handled.
Then, the rats were put into an alley having two distinctive sides with the barrier separating the two sides not in place, i.e., a baseline preference for the two sides was measured. After baseline was determined, the conditioning procedures began.
The conditioning procedures were the same for all rats, except that there were four different regimens of drug administration, one regimen for each of four different groups of rats (12 rats a group). The conditioning procedure involved one set of kind of injections before a rat was placed in one side of the alley and another set of kind of injections before being placed in the other side.
The group of rats that received the procedures usually used to show a cocaine-produced CPP, received cocaine-injections (plus a placebo injection) before being put into the putative side of conditioning. The dose of cocaine was 15 mg/kg given subcutaneously, a relatively large dose of cocaine. On the next day, this group received placebo injections before being put into the alternative side. These procedures were repeated throughout conditioning.
There was also a group that received placebos (vehicles for both cocaine and NTI) before being placed in either side of the chamber. This is a typical control group and can be used to determine if merely the procedures themselves of handling the rats leads rats to change their preference for a side of the alley.
There was yet another control group. This group received NTI before being placed in the side of putative conditioning and placebos at other times. […] So, the basic conditions for testing a NTI's effects on cocaine's ability to establish a CPP indicative of cocaine's positivity were set.
FIG. 2 depicts the mean percent change from baseline for each of the experimental groups. The group represented by the open bar (far left bar) received only injections of placebos before being put into either side of the apparatus, i.e., this is a placebo control group. […] The striped bar depicts the mean scores of the group that received NTI before being placed into the side of conditioning and saline before being placed into the other side. […] The solid black bar depicts the scores of the group getting cocaine before being put into the side of conditioning (saline or placebo before being put into the other side). […] The cross-hatched bar depicts the mean score of the group treated with cocaine but also receiving NTI.

dopamine transporter = settings: in words; cited from earlier work
[4] = format: in vivo, rats; settings: cocaine 0.4 mg/kg a lever press; one-hour session
Source text: When rats are fixed with chronically indwelling intravenous catheters, drugs can be administered as the rats are walking around. These same rats can be put into a box equipped with a lever, the depression of which actuates a pump that can deliver drug through the catheter, i.e., the rats can be put into a Skinner box with drug administration a continguency of lever-pressing. […] See J. R. Weeks et al., "Screening for Drug Reinforcement Using Intravenous Self-Administration in the Rat," Bozarth, cited above, at pages 35-44.
Rats were fixed with chronically indwelling catheters for the delivery of doses of cocaine directly into their veins. Subsequently, the rats were trained to press a lever for small bolus injections of cocaine (0.4 mg/kg of cocaine a lever press with an injection volume of 10 microliters of drug plus saline solution, the drug carrier). Rats were given one-hour opportunities daily to press for cocaine.

delta opioid receptor = test: In vivo antagonism of DSLET antinociception (writhing); parameters: species or system mice; settings: 20 mg/kg s.c.; in words
Experimental: When mice are injected with an irritant, they respond by a characteristic writhing that can be inhibited by analgesics. Consequently, the writhing response can be used to index the effects of particular opioids.

mu opioid receptor = settings: agonist morphine in GPI; antagonist 100 or 200 nM, 15 min; read-out: Ke; cited from earlier work

SMILES	conditioned place preference [1]	pressing for brain stimulation, cocaine alone [2]	pressing for brain stimulation, cocaine alone ([2]; listed as cocaine)	conditioned place preference, cocaine alone [3]	conditioned place preference, cocaine alone ([3]; listed as cocaine)	dopamine transporter binding / dopamine reuptake inhibition (dopamine transporter)	cocaine self-administration, average presses without NTI [4]	mean presses at High intensity, MDMA plus Naltrindole ([2]; High intensity, combination with MDMA, six rats) [presses per ten minutes]	mean presses at Low intensity, MDMA plus Naltrindole ([2]; Low intensity, combination with MDMA, six rats) [presses per ten minutes]	mean presses at Medium intensity, MDMA plus Naltrindole ([2]; Medium intensity, combination with MDMA, six rats) [presses per ten minutes]	pressing for brain stimulation, NTI alone ([2]; NTI by itself, listed as NTI)	pressing for brain stimulation, NTI plus MDMA ([2]; listed as NTI)	pressing for brain stimulation, NTI plus MDMA ([2]; listed as naltrindole)	pressing for brain stimulation, NTI plus amphetamine ([2]; rat, in vivo)	pressing for brain stimulation, NTI plus cocaine ([2]; rat, in vivo)	pressing for brain stimulation, NTI plus morphine ([2]; rat, in vivo)	conditioned place preference, NTI alone ([3]; rat, in vivo)	conditioned place preference, NTI plus cocaine ([3]; rat, in vivo)	blocking of writhing inhibition due to DSLET (delta opioid receptor)	Kb (mu opioid receptor) [nM]
COC(=O)[C@H]1[C@@H](OC(=O)c2ccccc2)C[C@@H]2CC[C@H]1N2C [Cocaine, methyl 3-(benzoyloxy)-8-methyl-8-azabicyclo[3.2.1]octane-2-carboxylate]	establishes a CPP	leads to a marked increase in pressing compared to pressing under the influence of placebo	large increase in pressing; also recorded: increased pressing for stimulation	established a positive CPP; also recorded: produced a significant (asterisk) positive place preference	statistically significantly different than its baseline score and is significantly larger than the placebo-control group's scores	binds to the dopamine transporter and inhibits dopamine reuptake	about 11 presses a session													
Oc1ccc2c3c1O[C@H]1c4[nH]c5ccccc5c4C[C@@]4(O)[C@@H](C2)N(CC2CC2)CC[C@]314 [Compound 1, 17-(cyclopropylmethyl)-6,7-dehydro-3,14β-dihydroxy-4,5α-epoxy-6,7-2',3'-indolmorphinan]								825	98	342	no demonstratable effect; also recorded: did not, by itself, reduce pressing for brain stimulation	reduced the increased pressing associated with the administration of MDMA	pressing at the low intensity is reduced considerably and there is no reliable difference in pressing under the combination of drugs compared to placebo	pressed somewhat less under the influence of NTI (10 mg/kg) plus amphetamine than they did under the influence of placebos; also recorded: NTI can modulate amphetamine's as well as cocaine's reinforcing effects; also recorded: reduced pressing similar to rate under placebo	NTI blocked cocaine's effects; also recorded: blocked the effects of cocaine; also recorded: NTI blocked cocaine's ability to be reinforcing; also recorded: reduced rate of pressing under the influence of cocaine to that similar to rate of pressing under placebo alone; also recorded: extraordinarily effective in blocking cocaine's salient effects	hardly affected the effects of morphine; also recorded: negligible; also recorded: did not markedly or significantly affect rate of pressing	did not significantly change from baseline to testing; also recorded: not statistically different at testing from baseline; also recorded: did not by itself establish a place preference; also recorded: did not produce place preferences or place aversions	significantly different from the cocaine group's scores but not different from the other groups' scores; also recorded: blocked cocaine's ability to produce a positive CPP; also recorded: antagonized by naltrindole	effectively blocked the writhing inhibition due to DSLET	29.4
